Source: US6399570B1, “Antimicrobial/endotoxin neutralizing polypeptide” (priority 1999, dated 2002)
Where a SMILES comes first, the peptide text is derived from it.

Columns and labels:
E. coli 0111 [1] = assay: Dose response of E. coli 0111 cells in the presence of LF polypeptides; type: cell-based; details: E. coli 0111, 5 hours, OD 600 nm
Experimental: To compare the activity of the above described 33-mer which contains both basic clusters, and the above described 27-mer, which contains only one basic cluster, E. coli cultures were grown for 5 hours in the presence of varying doses of the two polypeptides.
Dose response of E. coli 0111 cells in the presence of LF polypeptides. E. coli were cultured as described above, for 5 hr in the presence of varying concentrations of polypeptide 33-mer or the related 27-mer. Inhibition of culture growth was determined spectrophotometrically as described earlier.

E. coli 0111 [2] = assay: Potentiation of Rifampicin by LF polypeptides; details: 5 μM polypeptide + 0.9 μg/ml rifampicin, 6 hr
Experimental: E. coli cultures were exposed to sub-optimal doses of Rifampicin in the presence or absence of sub-optimal doses of the indicated polypeptides (FIG. 5), and were incubated for 6 hours, at which point CFU were determined.
E. coli 0111 were grown overnight as described above. Overnight cultures were then diluted 1:16,000 in 1% BP/PBS containing 0.9 μg/ml Rifampicin (Sigma-Aldrich Fine chemicals) and 5 μM LF polypeptides as indicated. Control cultures were those not exposed to any polypeptide. The diluted cultures were then incubated at 37° C. for 6 hr with aeration by shaking. The number of viable bacteria were then determined by dilution plating samples from each group and subsequently counting colony forming units (CFU). All values represent the average of duplicate independent experiments.

RAW264.7 cells = assay: Cytotoxicity of LF-33 to RAW264.7 cells (MTT); type: cell-based, murine; details: 10 μM, highest concentration used
RAW 264.7 cells = assay: Endotoxin-induced TNF-α secretion by RAW264.7 cells in culture medium containing 10% human serum; type: cell-based, murine; details: polypeptide 2.5 μM, endotoxin 10 ng/ml
Experimental: To test the suppression of endotoxin-induced TNF-α secretion under more physiological conditions, LF-33 or polymyxin B was added to human serum (final concentration 10%) before the addition of endotoxin.
Endotoxin induced TNF-α secretion by RAW 264.7 cells. The murine macrophage cell line RAW 264.7 was obtained from the American Type Culture Collection (ATCC, Rockville, Md.) and maintained as described previously (Jeremy, B., Immunol. Today. 16: 417-419 (1995)). The concentration of endotoxin in all buffers and media was controlled to below 0.1 EU/ml. The following protocol was essentially described before and used here with minor modifications (Kelly et al., Infect. Immun. 59: 4491-6 (1991)). Each well of a 96-well tissue culture plate was seeded with 150 μl RAW 264.7 cells at 10^6 cells per ml DMEM (Life Technologies, Gaithersburg, Md.) supplemented with 10% heat-treated fetal bovine serum (Life Technologies), 25 mM HEPES (N-2-hydroxyethylpiperazine-N′-2-ethanesulfonic acid; pH 7.3), penicillin (60 U/ml) and streptomycin (60 μg/ml). After overnight incubation at 37° C. in a 6% CO2 incubator, the medium was aspirated and cells washed with 3-changes of endotoxin-free Hank's balanced salt solution (HBSS, Life Technologies) supplemented with 25 mM HEPES (pH 7.3). Control endotoxin (10 ng/ml) and test materials were prepared in HBSS-HEPES. After incubation in a 37° C. water bath for 1 h, 0.2 ml of these solutions was added in triplicate to each well and incubated at 37° C. for 6 h. The supernatants were then collected and stored at −70° C. before the measurement of […] activity. Controls included HBSS-HEPES and test materials in the absence of endotoxin. TNF-α activity of the medium and test materials was below […]. The human serum used in some experiments was a pool from normal donors.
Determination of TNF activity. TNF-α activity in the culture supernatant was determined based on its cytotoxicity for the mouse fibrosarcoma cell line WEHI 164 cells (ATCC). […] The antibody at 1:100 dilution completely eliminated the cytotoxicity in the culture supernatant of the RAW 264.7 cell stimulated by endotoxin and in the mouse sera collected 1 h after intraperitoneal injection of endotoxin.
Briefly, the 96-well tissue culture plates were seeded with 100 μl WEHI164 cells (5×10^4 cells) in RPMI-1640 medium (Life Technologies) containing 10% heat-treated fetal bovine serum, 25 mM HEPES (pH 7.3), penicillin (60 U/ml), streptomycin (60 μg/ml), and actinomycin D (4 μg/ml). […] Cell viability was then determined by the addition of 10 μl MTT (Thiazolyl blue, Sigma) stock solution (5 mg/ml in saline) to each well, and the incubation was allowed to continue for 6 h. […] The plate was read at 570 nm with a reference of 630 nm in a microplate reader. […]

P. aer. LPS = assay: Limulus ELISA, ENC50 against P. aer. LPS; type: biochemical, Pseudomonas aeruginosa; details: endotoxin 200 EU/ml; mean +/− SD
Experimental: (§1) The peptide-mediated inhibition of endotoxin-induced Limulus amebocyte lysate (LAL) coagulation was measured with a sensitive LAL assay (Zhang et al., J. Clin. Microbiol. 32: 416-422 (1994)). Limulus ELISA is an endotoxin assay based on activation of the LAL coagulation by endotoxin and detection of the generated peptide-C immunoreactivity with an ELISA using a monoclonal antibody to the polypeptide. Endotoxin was defined to be neutralized when it lost its ability to activate the LAL enzymes. The 50% endotoxin-neutralizing concentration (ENC50) reflects the potency of an anti-endotoxin agent; a low ENC50 indicates high potency. Table 2 lists the determined ENC50 value of each anti-endotoxin agent against lipid A and four different types of LPS. The potency of each anti-endotoxin agent varied depending on the type of endotoxin. […] The only difference between the sequence of LF-33 and LF-27 is that LF-27 lacks the first six residues (GRRRRS) at the N-terminus of LF-33. Remarkably, this deletion led to dramatic loss of the endotoxin-neutralizing capacity of the polypeptide in this assay. Binding of serum proteins to endotoxin neutralizes the endotoxin activity in this assay by preventing endotoxin from activating LAL (Emancipator et al., Infect. Immun. 60: 596-601 (1992)).
(§2) LPS. […] LPS (purity >99%) from Neisseria meningitidis was prepared from the group B strain #6275 and its potency was 25 EU/ng. […] The potency of the above endotoxin was determined with the Limulus enzyme-linked immunosorbent assay (ELISA, 43) in comparison with US Pharmacopeia reference standard endotoxin EC-5.
(§3) Briefly, 25 μl endotoxin solution (200 EU/ml) was mixed with an equal volume of test materials in a series of two-fold dilution in 0.15 M NaCl in a sterile 96-well tissue culture plate (Nunc A/S, Roskilde, Denmark), and incubated at 37° C. for 1 h in a dry-air incubator. […] The endotoxin activity was then quantified with the use of Limulus ELISA (Zhang et al., J. Clin. Microbiol. 32: 416-422 (1994)). […] The high sensitivity of the assay allowed for very low levels of the endotoxin activity to be detected. […]

E. coli LPS = assay: Limulus ELISA, ENC50 against E. coli LPS; type: biochemical, Escherichia coli O113:H10; details: endotoxin 200 EU/ml; mean +/− SD
Experimental: as §1, §2, §3

S. abortus LPS = assay: Limulus ELISA, ENC50 against S. abortus LPS; type: biochemical, Salmonella abortus equi; details: endotoxin 200 EU/ml; mean +/− SD
Experimental: as §1, §2, §3

N. min. LPS = assay: Limulus ELISA, ENC50 against N. min. LPS; type: biochemical, Neisseria meningitidis; details: endotoxin 200 EU/ml; mean +/− SD
Experimental: as §1, §2, §3

Lipid A = assay: Limulus ELISA, ENC50 against Lipid A; type: biochemical, E. coli K12; details: endotoxin 200 EU/ml; mean +/− SD
Experimental: as §1, §2, §3

E. coli 0111 [3] = assay: Antimicrobial assay for LF polypeptides (CFU after 6 h); type: cell-based
Experimental: The antimicrobial activity of the catheptic polypeptide was measured against a clinical isolate, E. coli 0111. […] The 6 kDa catheptic fragment of LF is therefore at least as potent as twelve other natural antimicrobial polypeptides (H. G. Boman, J. Marsh, and J. A. Goode, Eds., Antimicrobial Peptides, (John Wiley & Sons Ltd., New York, N.Y., 1994)), and can function as a bactericidal agent. […] At 100 μM polypeptide, the number of viable bacteria was more than 1,000-fold greater in the cultures treated with the pepsinolytic versus cathepsinolytic fragment (FIG. 1). The basis for this difference in potency may be related to the additional, internal, pepsin cleavages which occur between the two disulfide bridges in the 6 kDa domain (Mann et al., J. Biol. Chem. 269: 23661-7 (1994); Bellamy et al., Biochim. Biophys. Acta 1121: 130-6 (1992)).
Antimicrobial assay for LF polypeptides. Cultures of E. coli 0111 (American Type Culture Collection #43887) were grown at 37° C. in 1% bactopeptone (BP) (Difco) in Dulbecco's phosphate buffered saline (dPBS) (Mediatech) with aeration by shaking (225 rpm). overnight cultures were diluted 8,000-fold in 2×concentrated BP/dPBS and mixed with an equal volume of sterile endotoxin-free distilled water containing serial dilutions of the polypeptide to be tested. The final assay volume was […] in a 12 mm×75 mm polypropylene tube (Falcon) with an ultimate dilution of the overnight cultures of 1:16,000 to yield an original inoculum of ˜1-2×10^4 CFU/ml. The final assay medium was physiological in ionic strength, 1% bactopeptone in 1×Dulbecco's phosphate buffered saline. Cultures were grown for 6 h at 37° C. with aeration as above and then cell density determined by measuring CFU/ml for each assay culture tube. Serial dilutions of each assay tube were plated on Luria Broth bactoagar and incubated for 24 h at 37° C. prior to counting colonies. All assays were done in triplicate and the standard deviation calculated for each concentration of inhibitor. Culture density at the beginning and end of the 6 h growth period was also determined from triplicate cultures lacking any polypeptide inhibitors. Untreated cultures typically grew to 1-2×10^8 CFU/ml in 6 h under these assay conditions.

E. coli 0111 [4] = details: Bellamy et al. 1992; cited from earlier work

## CSCC[C@H](NC(=O)[C@H](CC(N)=O)NC(=O)[C@H](CCCNC(=N)N)NC(=O)[C@H](CCC(N)=O)NC(=O)[C@H](Cc1c[nH]c2ccccc12)NC(=O)[C@H](CCC(N)=O)NC(=O)[C@H](Cc1ccccc1)NC(=O)[C@H](CS)NC(=O)[C@H](CCCCN)NC(=O)[C@@H](NC(=O)[C@H](C)NC(=O)[C@H](CCC(=O)O)NC(=O)[C@@H]1CCCN1C(=O)[C@H](CCC(N)=O)NC(=O)[C@H](CO)NC(=O)[C@@H](NC(=O)[C@H](C)NC(=O)[C@H](CS)NC(=O)[C@H](Cc1c[nH]c2ccccc12)NC(=O)[C@H](CCC(N)=O)NC(=O)[C@@H](NC(=O)[C@H](CO)NC(=O)[C@H](CCCNC(=N)N)NC(=O)[C@H](CCCNC(=N)N)NC(=O)[C@H](CCCNC(=N)N)NC(=O)[C@H](CCCNC(=N)N)NC(=O)CN)C(C)C)C(C)C)[C@@H](C)O)C(=O)N[C@@H](CCCNC(=N)N)C(=O)N[C@@H](CCCCN)C(=O)N[C@H](C(=O)N[C@@H](CCCNC(=N)N)C(=O)NCC(=O)N1CCC[C@H]1C(=O)O)C(C)C [LF-33] (H-GRRRRSVQWCAVSQPEATKCFQWQRNMRKVRGP-OH)
E. coli 0111 [1]
  minimum inhibitory concentration (MIC): 2 to 5 µM
E. coli 0111 [2]
  viable bacteria relative to the rifampicin treatment alone: approximately 1%
M. smegmatis BH1; 50 μM LF-33, 16 hours, average of three experiments, listed as 33-mer
  % killed, average: approximately 94%
M. smegmatis BH1; M. smegmatis, 16 hours
  anti-mycobacterial MIC: not more than 10 μM
RAW264.7 cells
  cytotoxicity to RAW264.7 cells: no cytotoxicity

## Polymyxin B [reference compound]
RAW 264.7 cells; control 4,428
  TNF-α secretion induced by P. aer. LPS: 4,206 +/− 956 pg/ml
  TNF-α secretion, P. aer. LPS mixing with serum first: 4,206 +/− 956 pg/ml
RAW 264.7 cells; control 5,726
  TNF-α secretion induced by S. abortus LPS: 4,090 +/− 806 pg/ml
RAW 264.7 cells; control 8,817
  TNF-α secretion induced by N. min. LPS: 8,181 +/− 1,032 pg/ml
P. aer. LPS
  IC50: 3.91 µM
E. coli LPS
  IC50: 1.95 µM
S. abortus LPS
  IC50: 18.2 µM
N. min. LPS
  IC50: > 100 µM
Lipid A
  IC50: 0.19 µM

## pepsinolytic fragment: 6 kDa fragment released from LF by pepsin, amino acids 1-47, no amide bond between amino acid 11 and 12 [reference compound]
E. coli 0111 [3]; 100 μM polypeptide
  number of viable bacteria, pepsinolytic versus cathepsinolytic fragment: more than 1,000 fold
E. coli 0111 [3]; E. coli 0111, physiological ionic strength, 6 h, CFU
  minimum inhibitory concentration (MIC): 11 to 33 µM
E. coli 0111 [4]
  MIC previously reported: 18 µM
